Results as given in patent US20240139126A1, “NUTRITIONAL COMPOSITIONS FOR SKELETAL MUSCLE” (MITOCHOLINE LTD, priority 0001, published 2024).

Assays:
primary myotube cultures = test: Mitochondrial membrane potential (TMRM fluorescence) in primary myotube cultures; assay type: cell-based, rat; settings: DiSu 50 μM; NAM 20 μM
Experimental: Primary myotube cells were obtained from postnatal day 0-2 (P0-P2) rat pups which were sacrificed by decapitation. Briefly, the rats were immersed in 70% ethanol and the hind-limbs removed under a dissection microscope, in dissection solution containing Dulbecco's Phosphate Buffered Saline (PBS) with penicillin streptomycin (5000 units/ml) and Amphotericin B (2.5 mg/L). The tissues were then digested in 0.2% collagenase solution at 37° C. for 30-40 minutes. The reaction was stopped by adding 2-3 ml fetal bovine serum (FBS), and the tissue suspension was centrifuged at 2010 rpm (700 g) for 10 minutes. The cell pellet was resuspended in pre-warmed growth medium, Dulbecco's modified Eagle's medium (DMEM), containing 20% FBS, 100 i.u./ml penicillin and 200 i.u./ml streptomycin], and plated on 22 mm coverslips that were pre-coated with 0.2% gelatin for 1 hour at 37° C. […]
Tetramethyl rhodamine methyl ester (TMRM) was used to study the changes of the mitochondrial membrane potential (Δψm). […] TMRM fluorescence was excited at 543 nm (HeNe laser), and emission was measured at >560 nm. […] Therefore, the changes in potential are reflected by changes in fluorescence intensity within the mitochondria which is measured after thresholding out the background signal from the cytosol to give a mean value per pixel within the mitochondrial population of a cell. […]

primary myotubes [1] = test: Mitophagy/autophagy: co-localization of mitochondria and lysosomes in primary myotubes; assay type: cell-based, rat; settings: blend 50 μM DiSu+20 μM NAM; individual compounds in corresponding molar amounts
Experimental: (§1) Primary Skeletal Muscle Cell culture. Primary myotube cells were obtained from postnatal day 0-2 (P0-P2) rat pups which were sacrificed by decapitation. Briefly, the rats were immersed in 70% ethanol and the hind-limbs removed under a dissection microscope, in dissection solution containing Dulbecco's Phosphate Buffered Saline (PBS) with penicillin streptomycin (5000 units/ml) and Amphotericin B (2.5 mg/L). The tissues were then digested in 0.2% collagenase solution at 37° C. for 30-40 minutes. The reaction was stopped by adding 2-3 ml fetal bovine serum (FBS), and the tissue suspension was centrifuged at 2010 rpm (700 g) for 10 minutes. The cell pellet was resuspended in pre-warmed growth medium, Dulbecco's modified Eagle's medium (DMEM), containing 20% FBS, 100 i.u./ml penicillin and 200 i.u./ml streptomycin], and plated on 22 mm coverslips that were pre-coated with 0.2% gelatin for 1 hour at 37° C. Cells were then cultured in a humidified CO2 incubator (5% CO2 in air) at 37° C. After 2 or 3 days, the medium was changed to a low-serum medium (DMEM containing 10% FBS without antibiotics), and was subsequently renewed every 3 or 4 days. All experiments were performed in vitro between days 2 and 11 in culture when spindle-shaped myoblasts had proliferated and aligned themselves for fusion (˜70% confluency).

[2] = test system: dexamethasone-treated primary myotubes; test: Energy capacity of primary myotubes in dexamethasone-induced sarcopenia cell culture model; assay type: cell-based, rat; settings: in words; for time until cell total energy exhaustion and collapse: IAA 20 μM + oligomycin 2 μg/ml; for energy capacity / energy depletion compared to control cells: IAA + oligomycin
Experimental: Primary rat myocyte cultures were prepared as described by Yao G., et al. ((Yao G., et. al. (2011) J Cell Sci v.124: 4194-4202. doi: 10.1242/jcs.088260).
All experiments were performed with 5-11 days cultured cells.
To test energetic capacity of cultures myotubes in atrophic conditions, myocyte cultures were differentiated for 5 days followed incubation in the presence of 1, 10, and 100 μM dexamethasone for 24 h.
All cultures were treated with an inhibitor of the ATP production in cellular cytoplasm via glycolysis, Iodoacetic Acid (IAA) (20 μM), and an inhibitor of the ATP production in mitochondria by oxidative phosphorylation, oligomycin (2 μg/ml). […] The cellular concentration of both cations can be indirectly measured by measuring fluorescence of Mag Fura-2 dye.

primary myotubes [3] = test: NADH autofluorescence: redox index and mitochondrial pool of NADH in primary myotubes; assay type: cell-based, rat; settings: blends 100 μM DiSu+40 μM NAM, 50 μM DiSu+20 μM NAM, choline 100 μM, succinate 50 μM
Experimental: as §1
NADH autofluorescence was excited at 351 and measured at 375-470 nm.

[4] = test system: adult onset mitochondrial myopathy patients; parameters: dose or concentration left out as unconfirmed; settings: cited from earlier work
mice = settings: dietary supplementation; cited from earlier work

Compound | TMRM fluorescence compared to control (primary myotube cultures) | autophagy (co-localization of mitochondria and lysosomes) (primary myotubes [1]) | time until cell total energy exhaustion and collapse [2] | redox index (NADH-dependent mitochondrial respiration) (primary myotubes [3]) | blood and muscle NAD levels, muscle strength and mitochondrial biogenesis [4] | energy capacity / energy depletion compared to control cells [2] | endurance exercise ability (mice)
C[N+](C)(C)CCO.C[N+](C)(C)CCO.O=C([O-])CCC(=O)[O-] [DiSu, dicholine succinate] | increase in TMRM fluorescence | significantly increase autophagy | extended the time until cell total energy exhaustion and collapse | – | – | – | –
NC(=O)c1cccnc1 [NAM, nicotinamide] | increase in TMRM fluorescence | not | – | did not induce significant changes | increased in all human subjects | Neither choline or succinate or NAM treatments had a noticeable effect | –
O=C([O-])CCC(=O)[O-].[Na+].[Na+] [Succinate*, Sodium succinate (salt)] | – | not | – | did not induce significant changes | – | Neither choline or succinate or NAM treatments had a noticeable effect | increased endurance exercise ability
CN(CC(=O)O)C(=N)N [creatine] | – | – | extended the time until cell total energy exhaustion and collapse | – | – | – | –
Choline bitartrate [Choline**] | – | not | – | – | – | – | –
